≈ marks a conversion by molar mass, not a printed value. Where two headings read alike, the source gives them in different places.
Tests used:
[1] = system: Enterococcus faecalis ATCC29212; assay: MIC, microtiter broth dilution; assay type: cell-based; details: LB broth, 18 h
Method: (§1) Antibacterial activities were performed by examining the minimal inhibitory concentrations (MICs), which was determined by a microtiter broth dilution method as previously described ([Cotsonas King and Wu, 2009]), with minor modifications. Briefly, 96-well plates (Corning) were inoculated with 100 μl of LB broth per well containing 7 × 10^5 CFU/mL bacteria, followed by adding 100 μl of LB broth containing two-fold serial dilutions of the test compounds. […] After 18 h of incubation, the MIC was determined to be the lowest concentration without visible bacterial growth. The results were the averages of at least three biological replicates.

[2] = system: Escherichia coli ATCC25922; assay: MIC, microtiter broth dilution; assay type: cell-based; details: LB broth, 18 h
Method: as §1

[3] = system: Listeria monocytogenes ATCC19117; assay: MIC, microtiter broth dilution; assay type: cell-based; details: LB broth, 18 h
Method: as §1

[4] = system: Staphylococcus aureus ATCC29213; assay: MIC, microtiter broth dilution; assay type: cell-based; details: LB broth, 18 h
Method: as §1

[5] = system: MRSA; assay: MIC, microtiter broth dilution; assay type: cell-based, Staphylococcus aureus; details: LB broth, 18 h
Method: as §1

[6] = system: Escherichia coli BAS 849; assay: microbe, parasite or virus in culture; assay type: cell-based; details: LB broth, 18 h, strain with deficient outer-membrane structure
Method: as §1

[7] = system: Escherichia coli BL21 (DE3); assay: microbe, parasite or virus in culture; assay type: cell-based; details: LB broth, 18 h
Method: as §1

[8] = system: Escherichia coli DH5α; assay: microbe, parasite or virus in culture; assay type: cell-based; details: LB broth, 18 h
Method: as §1

[9] = Enterococcus faecalis, ATCC29212, read-out: MIC
[10] = Listeria monocytogenes, ATCC19117, read-out: MIC
[11] = Staphylococcus aureus, ATCC29213, read-out: MIC
[12] = Staphylococcus aureus, MRSA, read-out: MIC
[13] = Escherichia coli, read-out: MIC

| Compound | MIC [1] [µg/mL] | MIC [2] [µg/mL] | MIC [3] [µg/mL] | MIC [4] [µg/mL] | MIC [5] [µg/mL] | MIC [6] [µg/mL] | MIC [7] [µg/mL] | MIC [8] [µg/mL] | MIC [1, 9] [µg/mL] | MIC ([2]; Escherichia coli, ATCC25922, read-out: MIC) [µg/mL] | MIC [3, 10] [µg/mL] | MIC [4, 11] [µg/mL] | MIC [5, 12] [µg/mL] | MIC ([6]; Escherichia coli, BAS849, read-out: MIC) [µg/mL] | MIC [7, 13] [µg/mL] | MIC [8, 13] [µg/mL] |
| --- | --- | --- | --- | --- | --- | --- | --- | --- | --- | --- | --- | --- | --- | --- | --- | --- |
| COc1cc(O)c2c(O)c3c(c4c2c1[C@]1(C4)C(C)=CCCC1(C)C)[C@H](O)[C@@]1(O)CC(=O)C(C(N)=O)=C(O)[C@@]1(O)C3=O [VirA, viridicatumtoxins A] | 2 (≈ 3.54 µM) | > 64 | 2 (≈ 3.54 µM) | 1 (≈ 1.77 µM) | 1 (≈ 1.77 µM) | 8 (≈ 14.1 µM) | > 64 | > 64 |  |  |  |  |  |  |  |  |
| CC1(C)S[C@@H]2[C@H](NC(=O)[C@H](N)c3ccccc3)C(=O)N2[C@H]1C(=O)O [Amp, ampicillin] |  |  |  |  |  |  |  |  | 0.5 (≈ 1.43 µM) | 1 (≈ 2.86 µM) | 1 (≈ 2.86 µM) | 1 (≈ 2.86 µM) | 1 (≈ 2.86 µM) | 0.5 (≈ 1.43 µM) | 1 (≈ 2.86 µM) | 2 (≈ 5.72 µM) |
| CN(C)[C@@H]1C(O)=C(C(N)=O)C(=O)[C@@]2(O)C(O)=C3C(=O)c4c(O)cccc4[C@@](C)(O)[C@H]3C[C@@H]12 [Tet, Tetracycline] |  |  |  |  |  |  |  |  | 8 (≈ 18 µM) |  | 2 (≈ 4.5 µM) | 0.5 (≈ 1.13 µM) | 2 (≈ 4.5 µM) |  |  |  |
| COc1cc(O)c2c(O)c3c(c4c2c1C1(C4)C(C)=CCCC1(C)C)C1(O)OC12CC(=O)C(C(N)=O)=C(O)C2(O)C3=O (stereo not shown) [VirB, viridicatumtoxins B] | 1 (≈ 1.77 µM) | > 64 | 1 (≈ 1.77 µM) | 1 (≈ 1.77 µM) | 1 (≈ 1.77 µM) | 8 (≈ 14.2 µM) | > 64 | > 64 |  |  |  |  |  |  |  |  |
